These results are taken from article PMC12521541, “A novel D-peptide modulates DCLK1 gelsolin interactions, reducing PDAC tumor growth” (Scientific Reports, 2025).

In general, Kd refers to a measure of binding affinity in units of concentration.

One data set has as its target T1, DCLK1 isoform 4 (Homo sapiens, UniProt O15075).
T1 sequence (O15075 687-740 limits assumed): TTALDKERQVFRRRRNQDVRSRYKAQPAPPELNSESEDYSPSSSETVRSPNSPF
As to the kind of experiment: SPR analysis of DCLK1 isoform 4 with Gelsolin and FGF19. The data set is classed as binding. The note with it: for Kinetic 1:1 Ave Kd: kinetic 1:1, average (dissociation rate). The protocol: Purification of human DCLK1 isoform 4 was performed at the University of Oklahoma Protein Production and Characterization Core Facility (Norman, OK) using an E. coli strain BL21(DE3) pLPP containing the pET19-DCLK1 isoform 4 plasmid. For Bio-layer Interferometry (BLI) experiments, a C-terminal DCLK1 isoform 2/4 His-tagged protein was used (NovoPro, Shanghai, China). All His-tagged proteins were dialyzed using PBS/glycerol to remove imidazole.

In the next data set the test system is DCLK1 isoform 4 / pGSN. As to the kind of experiment: ELISA binding of plasma gelsolin (pGSN) to DCLK1 isoform 4. Details: species or system human. The note with it: for effect of peptide on pGSN binding to DCLK1 isoform 4: peptide 20 mg/well (so in the source), pGSN at 2 µg/ml. The protocol:
(§1) Polystyrene microtitre Immulon 2HB plate was coated with freshly prepared (400 ng/50 ml) DCLK1 isoform 4 ([…]) in 0.1 M NaHCO3, pH 8.6, overnight at 4 C. After blocking with 1% gelatin in TTBS at RT, different concentrations of gelsolin or FGF19 were added (2 mg/50ul/well, 1 mg/well, 0.5 mg/well, and 0.25 mg/well at […], proteins diluted in TTBS), and incubated at RT. To study the competitive ability of peptides, we used 20 mg/well of either D-peptide 1, D-peptide 3, D-peptide 5, or the C-terminal peptide antigen for the mAb CBT-15. After incubation at RT, plates were washed with TTBS, and bound gelsolin or FGF19 was detected. Bound plasma gelsolin (ab233671; Abcam, Waltham, MA) was immunodetected with anti-gelsolin Ab (ab11081; Abcam, Waltham, MA) or FGF19 (969-FG-025; Bio-Techne, Minneapolis, MN) immunodetected by anti-FGF19 (sc-390621; Santa Cruz Biotechnology, Dallas, TX). Detection was by alkaline phosphatase-conjugated goat anti-mouse IgG (ab97020; Abcam, Waltham, MA) followed by 1-STEP NBT/BCIP substrate (#34042; ThermoFisher Scientific, Waltham, MA) and quantified at 450 nm on a microplate reader.
Background: An ELISA detects its analyte on a solid surface through an enzyme-linked reagent.

In a further data set the test system is DCLK1 isoform 4 / FGF19. The experiment in a line: ELISA binding of FGF19 to DCLK1 isoform 4. Set-up: species or system human. The protocol: as §1
The next data set relates to AsPC-1 xenografts. As to the kind of experiment: AsPC-1 xenograft tumor growth. It counts as in vivo. The note with it: for gross inspection of excised xenografts: AsPC-1 flank xenografts, excised after treatment until day 36. The protocol: Athymic nude (Foxn1^nu/Foxn1^nu) mice were purchased from the Jackson Laboratory (Bar Harbor, Maine) and housed in pathogen-free conditions. AsPC-1 cells (1 × 10^7) were injected subcutaneously into the flanks of 4- to 6-week-old mice (n = 3/group). Tumors were measured using a caliper and the volume was calculated as (length × width^2) × 0.5. Once tumors achieved an average size of ~ 100 mm^3 mice were injected via intraperitoneal injection (10 mg/kg, […]) with selected D-peptides. Treatments were continued every three days until day 36. Xenografts were then excised and evaluated by gross inspection.

Data set [1] concerns DCLK1 isoform 4 / mAb CBT-15. As to the kind of experiment: Competition assay: mAb CBT-15 binding to DCLK1 isoform 4. Details: species or system human. Conditions: mean ± SEM; *p < 0.01.
In a further data set the test system is Capan-1 cells. The experiment in a line: PDAC spheroid self-renewal assay, Capan-1. It counts as cell-based. The note with it: Matrigel 7 days or 0.3% agar 3 weeks. The protocol:
(§2) AsPC-1 and CAPAN-1 cancer cells were treated with candidate D-peptides or vehicle control and suspended in growth factor-reduced Matrigel™ for 7 days or 0.3% agar for 3 weeks and monitored for spheroid growth. The size and number of spheroids were analyzed, counted, and then compared between the treatment groups[41],[42].

Data set [2] has as its system AsPC-1 pancreatic cancer cells. The experiment in a line: Colony formation assay (clonogenicity), AsPC-1. It counts as cell-based. Conditions: blinded study.
Data set [3] can be described thus: Assessment of DCLK1 D-peptide toxicity in mice. It counts as in vivo. The note with it: athymic mice; escalating doses every three days, 750 µg increasing by 500 µg to 4000 µg/mouse; vs saline-treated controls. The protocol:
Supplemental Figure 1. Assessment of DCLK1 D-peptide Toxicity in Mice. Mice received escalating doses of D-peptide 1 every three days, starting with 750 µg (equivalent to 210 nM in blood and extravascular fluid) and increasing by 500 µg per dose, reaching a maximum of 4000 µg/mouse. Monitored toxicity indicators included soft feces, urine stains, depression, rough coat, nasal/ocular discharge, hunching, and body weight changes. […] Major organs were collected, and serum was stored for further biochemical analysis.

For data set [4], the system named is PDAC cell lines AsPC-1 and Capan-1. The experiment in a line: Functional bioassays in PDAC cell lines (overall activity). The data set is classed as cell-based. Conditions: summary of bioassays in AsPC-1 and Capan-1. The protocol: (§3) AsPC-1 and CAPAN-1 cells were grown as previously described with varying concentrations of candidate D-peptides[40]. Afterward, we treated cells with TACS MTT Reagent (RND Systems) at 37 C until a dark crystalline precipitate within the cells was observed. NH4OH in DMSO was added and incubated for 10 min while protected from light. We determined the OD550 and averaged it as a percentage of cell proliferation.
as §2

The next data set concerns DCLK1 isoform 1. The experiment in a line: Crossreactivity with DCLK1 isoform 1. It counts as binding, human.
For data set [5], the system named is Capan-1 pancreatic cancer cells. The experiment in a line: Colony formation assay (clonogenicity), Capan-1. It counts as cell-based. Conditions: blinded study.
For data set [6], the system named is PDAC cells (AsPC-1 and CAPAN-1). The experiment in a line: Proliferation assay (MTT). The data set is classed as cell-based. Conditions: OD550, in vitro. The protocol: as §3
The subject of a further data set is AsPC-1 cells. The experiment in a line: PDAC spheroid self-renewal assay, AsPC-1. The data set is classed as cell-based. Conditions: Matrigel 7 days or 0.3% agar 3 weeks. The protocol: as §2
The next data set concerns the target T2, plasma gelsolin (UniProt P06396 28-782).
T2 construct: plasma gelsolin (pGSN), bought protein; The source is told for the ELISA only; also called pGSN; source: bought: Abcam (ab233671)
The experiment in a line: SPR; format and conditions not told in the text shown (Fig. 4F, G; Suppl. Table 1). The note with it: both partners purified. (In general: In SPR one partner is held on a chip, and binding of the other changes the refractive index at the surface.)

Setting [7] is: kinetic 1:1, average, read-out: Kinetic 1:1 Ave KD.

Entries after “also recorded” stand apart in the source; their conditions may differ. Read-outs that look alike come from different tables or passages of the source. Non-standard residues stand in square brackets, D forms with d. Residues, ends and D or L forms follow the SMILES beside them.

T2 sequence (P06396 28-782): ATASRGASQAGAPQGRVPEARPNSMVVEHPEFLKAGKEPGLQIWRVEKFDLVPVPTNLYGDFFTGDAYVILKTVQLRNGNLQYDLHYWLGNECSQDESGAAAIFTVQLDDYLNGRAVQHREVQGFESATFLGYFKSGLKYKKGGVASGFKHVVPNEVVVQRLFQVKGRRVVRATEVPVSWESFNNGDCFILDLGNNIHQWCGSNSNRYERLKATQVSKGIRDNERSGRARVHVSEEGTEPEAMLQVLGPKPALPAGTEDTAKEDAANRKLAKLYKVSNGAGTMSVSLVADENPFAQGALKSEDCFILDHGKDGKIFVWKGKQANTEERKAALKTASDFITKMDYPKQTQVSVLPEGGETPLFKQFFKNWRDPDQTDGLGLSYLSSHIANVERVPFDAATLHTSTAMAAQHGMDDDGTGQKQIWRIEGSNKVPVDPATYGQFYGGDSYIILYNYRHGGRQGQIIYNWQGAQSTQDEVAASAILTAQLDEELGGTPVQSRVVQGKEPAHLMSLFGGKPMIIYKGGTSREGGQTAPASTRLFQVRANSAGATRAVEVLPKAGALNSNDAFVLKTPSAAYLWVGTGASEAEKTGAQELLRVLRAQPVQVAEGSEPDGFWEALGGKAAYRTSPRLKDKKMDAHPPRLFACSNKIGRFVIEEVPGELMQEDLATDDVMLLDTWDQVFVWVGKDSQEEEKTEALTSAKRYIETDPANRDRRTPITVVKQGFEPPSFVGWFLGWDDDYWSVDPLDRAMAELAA

Turning to Gelsolin, the “Kinetic 1:1 Ave Ka” value on DCLK1 isoform 4 (kinetic 1:1, average) was 5.48E+03 M^-1s^1. In addition, the “Kinetic 1:1 Ave Kd” value on DCLK1 isoform 4 is 5.47E-04 s^1. The dissociation constant (Kd) at DCLK1 isoform 4 (setting [7]) was determined as 99 nM. Further, in the data set with DCLK1 isoform 4 / pGSN (DCLK1-coated plates, pGSN gradient, R^2 of 0.94), the “concentration of maximum pGSN binding to DCLK1 isoform 4” value was determined as 2 µg/ml. Moreover, the “pGSN binding to DCLK1 isoform 4” value with DCLK1 isoform 4 / pGSN (pGSN gradient) is “consistent, linear binding”.

FGF19: FGF19 (969-FG-025; Bio-Techne): the “FGF19 binding to DCLK1 isoform 4” value in the data set with DCLK1 isoform 4 / FGF19 is “bound to DCLK1 isoform 4 similarly to pGSN”. For the same molecule, the “Kinetic 1:1 Ave Ka” value with DCLK1 isoform 4 (kinetic 1:1, average) is on record as 5.09E+03 M^-1s^1. Further, the “Kinetic 1:1 Ave Kd” value with DCLK1 isoform 4 is reported as 9.13E-03 s^1. Besides, the Kd turned out to be 1790 nM in the data set with DCLK1 isoform 4 (setting [7]) and 970 nM with DCLK1 isoform 4 (steady-state, average, read-out: Steady-state Affinity Ave KD).

For `NCC(=O)N[C@H](Cc1c[nH]c2ccccc12)C(=O)N[C@H](Cc1ccc(O)cc1)C(=O)NCC(=O)N[C@H](Cc1c[nH]c2ccccc12)C(=O)NCC(=O)N[C@H](CC(=O)O)C(=O)N[C@H](CC(=O)O)C(=O)O` [D-peptide 1] (H-G[dW][dY]G[dW]G[dD][dD]-OH; N-terminus and C-terminus assumed), the “gross inspection of excised xenografts” value is “no visible necrosis or hemorrhage was observed” with AsPC-1 xenografts and “no gross necrosis, hemorrhage, or cavitation” in the data set on AsPC-1 xenografts (listed as Dpeptide 1). Besides, in the data set on AsPC-1 xenografts (AsPC-1 xenografts, athymic mice, 10 mg/kg intraperitoneal, until day 36, control peptide D-peptide 3), the “reduction of tumor volume compared to controls” value worked out at 60%. In the data set on AsPC-1 xenografts (AsPC-1 xenografts, every three days for six doses, 36 days, control D-peptide 3 n = 8, D-peptide 1 n = 9, *p < 0.01), the “tumor size/growth compared to control” value was “significantly reduced tumor size compared to control”. The “general toxicity during xenograft treatment” value with AsPC-1 xenografts (flank xenograft model) is reported as “without general toxicity in non–DCLK1–expressing tissues”. Moreover, in [1], the “competition with mAb CBT-15 for DCLK1 isoform 4 binding” value was “interacts at a site distinct from CBT-15’s binding site; also recorded: its epitope is distinct from that of mAb CBT-15”. In addition, the “spheroid formation / self-renewal capacity” value in the data set on Capan-1 cells and in the data set on AsPC-1 cells was “markedly impaired self-renewal capacity” in each case. Also, in the data set on DCLK1 isoform 4 / FGF19 (peptide 20 mg/well (so in the source)), the “effect of peptide on FGF19 binding to DCLK1 isoform 4” value was “weak effect with FGF19-DCLK1 association”. Besides, the “colony formation (clonogenicity)” value in data set [2] and in [5] was “significantly reduced colony formation (clonogenicity) at low micromolar concentrations” each time. Also, the “effect of peptide on pGSN binding to DCLK1 isoform 4” value is “did not block the PPI interaction but seemed to improve pGSN binding to DCLK1; also recorded: enhances pGSN binding” with DCLK1 isoform 4 / pGSN; “binds a distinct site and allosterically enhances pGSN association” in the data set on DCLK1 isoform 4 / pGSN (listed as Dpeptide 1). Besides, the toxicity entry in data set [3] was “no adverse effects compared to saline-treated controls; also recorded: no apparent toxicity”. The “potency/activity in the bioassays” value in [4] is “high potency in the bioassays”. Moreover, the “crossreactivity with isoform 1” value in the data set with DCLK1 isoform 1 is given as “minimal crossreactivity with isoform 1”. In addition, in [6], the PDAC cell proliferation result is “modest in vitro proliferation decreases”.

B1: human DCLK1 isoform 4 (beta-short) (natural protein, UniProt O15075-4 1-433, looked up)
chain: MLELIEVNGTPGSQLSTPRSGKSPSPSPTSPGSLRKQRSSQHGGSSTSLASTKVCSSMDENDGPGEEVSEEGFQIPATITERYKVGRTIGDGNFAVVKECVERSTAREYALKIIKKSKCRGKEHMIQNEVSILRRVKHPNIVLLIEEMDVPTELYLVMELVKGGDLFDAITSTNKYTERDASGMLYNLASAIKYLHSLNIVHRDIKPENLLVYEHQDGSKSLKLGDFGLATIVDGPLYTVCGTPTYVAPEIIAETGYGLKVDIWAAGVITYILLCGFPPFRGSGDDQEVLFDQILMGQVDFPSPYWDNVSDSAKELITMMLLVDVDQRFSAVQVLEHPWVNDDGLPENEHQLSVAGKIKKHFNTGPKPNSTAAGVSVIATTALDKERQVFRRRRNQDVRSRYKAQPAPPELNSESEDYSPSSSETVRSPNSPF
notes: For the library screen the protein was labelled with biotin (NHS-LC-biotin); source: E. coli BL21(DE3) pLPP with the pET19-DCLK1 isoform 4 plasmid, purified
In turn, B1 had a Kd in the data set with plasma gelsolin of about 100 nM.
